According to patent US8143374B2, “Polypeptide derivatives of parathyroid hormone (PTH)” (The General Hospital Corporation, priority 2006, dated 2012):
Read-outs that look alike come from different tables or passages of the source. Where a SMILES comes first, the peptide text is derived from it. Where no end group is shown, it is not given here. [ ]: non-standard residue; d: D form. Cha = N[C@@H](CC1CCCCC1)C(=O)O

Experiments:
ROS 17/2.8 cells = molecular target: T1, ROS 17/2.8 cells (Rattus norvegicus, UniProt P25961); settings: position-20 substitutions in PTH(1-31)NH2; cited from earlier work
T1 construct: ROS 17/2.8 cells are rat osteosarcoma cells and express the endogenous PTHR; host or cells: ROS 17/2.8 cells
T1 sequence (P25961 27-591): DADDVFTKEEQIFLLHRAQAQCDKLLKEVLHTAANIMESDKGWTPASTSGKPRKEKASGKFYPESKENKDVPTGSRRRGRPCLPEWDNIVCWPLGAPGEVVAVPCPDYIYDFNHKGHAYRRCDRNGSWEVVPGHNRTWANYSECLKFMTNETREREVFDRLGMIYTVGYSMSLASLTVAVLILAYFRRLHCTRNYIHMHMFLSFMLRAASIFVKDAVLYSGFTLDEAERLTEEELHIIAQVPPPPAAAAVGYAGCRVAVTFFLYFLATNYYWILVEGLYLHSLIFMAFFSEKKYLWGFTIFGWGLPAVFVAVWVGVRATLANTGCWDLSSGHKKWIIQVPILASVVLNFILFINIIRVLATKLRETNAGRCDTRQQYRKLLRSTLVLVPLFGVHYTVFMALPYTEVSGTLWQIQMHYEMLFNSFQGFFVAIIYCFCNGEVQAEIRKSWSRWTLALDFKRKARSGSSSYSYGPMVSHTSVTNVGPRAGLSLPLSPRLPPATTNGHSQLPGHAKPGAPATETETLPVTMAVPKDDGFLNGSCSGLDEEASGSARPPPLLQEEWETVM

PTHR-delNt = molecular target: T2, PTHR-delNt (Homo sapiens, UniProt Q03431, DEL24-181); assay: Competition binding in COS-7 cell membranes with 125I-[Aib1,3,M]PTH(1-15)NH2 tracer; settings: for IC50: COS-7 membranes cotransfected with negative-dominant Gαs, read-out: PTHR-delNT (COS-7) IC50; for effect on binding to PTHR-delNt (in words) / reduction (alteration) of binding affinity for PTHR-delNt relative to parent peptide: COS-7 membranes; for reduction (alteration) of binding affinity for PTHR-delNt relative to parent peptide: versus the respective parent peptide
T2 construct: expressed in transfected cells; host or cells: COS-7 cells, transient co-transfection; membranes prepared
T2 sequence (Q03431 with tags, fused parts or gaps DEL24-181): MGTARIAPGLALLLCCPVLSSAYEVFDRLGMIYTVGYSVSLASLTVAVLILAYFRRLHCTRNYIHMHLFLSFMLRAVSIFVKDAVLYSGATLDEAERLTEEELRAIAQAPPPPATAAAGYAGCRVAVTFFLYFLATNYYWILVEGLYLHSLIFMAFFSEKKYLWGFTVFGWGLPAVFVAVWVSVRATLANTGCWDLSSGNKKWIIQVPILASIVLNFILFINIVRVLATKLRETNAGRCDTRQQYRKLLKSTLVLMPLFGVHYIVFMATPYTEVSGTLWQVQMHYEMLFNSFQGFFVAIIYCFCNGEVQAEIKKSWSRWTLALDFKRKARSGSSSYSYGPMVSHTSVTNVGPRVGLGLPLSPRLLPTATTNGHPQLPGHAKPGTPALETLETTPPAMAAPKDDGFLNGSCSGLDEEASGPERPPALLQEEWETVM
In short: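 Membranes (20 µg/well) from COS-7 cells co-transfected with human PTHR lacking residues 24–181 plus dominant-negative Gαs, incubated 90 min at 21 °C with 125I-[Aib1,3,M]PTH(1-15)NH2 and unlabeled peptide (3×10^−9 to 1×10^−5 M), then filtered and gamma-counted. Non-specific binding with 1×10^−6 M [Aib1,3,M]PTH(1-15)NH2; IC50 by four-parameter logistic fit, extrapolated to reference maximal inhibition where incomplete.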

[1] = Circular dichroism spectroscopy, helical residues per peptide chain; assay type: physicochemical; settings: calculated from [θ]222
In short: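 CD spectra recorded at 20 °C, four scans averaged; peptide concentration checked by A280 with the single-Trp extinction coefficient of 5700 M^−1. Helical residues per chain calculated as −[θ]222×30/28,000 from mean residue ellipticity at 222 nm.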

[2] = [Ala1,Arg19]hPTH(1-31)NH2 analogs

Row | Compound | reduction of cAMP-stimulating potency (ROS 17/2.8 cells) | IC50 (PTHR-delNt; hPTH(1-31)NH2 analogs) | CD helical residues ([1]; hPTH(1-31)NH2 analogs) | IC50 (PTHR-delNt; [2]) | CD helical residues [1, 2] | effect on binding to PTHR-delNt (in words) (PTHR-delNt) | reduction (alteration) of binding affinity for PTHR-delNt relative to parent peptide (PTHR-delNt)
1 | CC[C@H](C)[C@H](NC(=O)[C@H](CCC(=O)O)NC(=O)[C@H](CO)NC(=O)[C@@H](NC(=O)[C@@H](N)CO)C(C)C)C(=O)N[C@@H](CCC(N)=O)C(=O)N[C@@H](CC(C)C)C(=O)N[C@@H](CCSC)C(=O)N[C@@H](Cc1c[nH]cn1)C(=O)N[C@@H](CC(N)=O)C(=O)N[C@@H](CC(C)C)C(=O)NCC(=O)N[C@@H](CCCCN)C(=O)N[C@@H](Cc1c[nH]cn1)C(=O)N[C@@H](CC(C)C)C(=O)N[C@@H](CC(N)=O)C(=O)N[C@@H](CO)C(=O)N[C@@H](CCSC)C(=O)N[C@@H](CCC(=O)O)C(=O)N[C@@H](CCCNC(N)=O)C(=O)N[C@H](C(=O)N[C@@H](CCC(=O)O)C(=O)N[C@@H](Cc1c[nH]c2ccccc12)C(=O)N[C@@H](CC(C)C)C(=O)N[C@@H](CCCNC(=N)N)C(=O)N[C@@H](CCCCN)C(=O)N[C@@H](CCCCN)C(=O)N[C@@H](CC(C)C)C(=O)N[C@@H](CCC(N)=O)C(=O)N[C@@H](CC(=O)O)C(=O)N[C@H](C(N)=O)C(C)C)C(C)C [Arg^20→Cit] | 8 fold | 10600 nM | 9 | – | – | – | –
2 | CC[C@H](C)[C@H](NC(=O)[C@H](CCC(=O)O)NC(=O)[C@H](CO)NC(=O)[C@@H](NC(=O)[C@H](C)N)C(C)C)C(=O)N[C@@H](CCC(N)=O)C(=O)N[C@@H](CC(C)C)C(=O)N[C@@H](CCSC)C(=O)N[C@@H](Cc1c[nH]cn1)C(=O)N[C@@H](CC(N)=O)C(=O)N[C@@H](CC(C)C)C(=O)NCC(=O)N[C@@H](CCCCN)C(=O)N[C@@H](Cc1c[nH]cn1)C(=O)N[C@@H](CC(C)C)C(=O)N[C@@H](CC(N)=O)C(=O)N[C@@H](CO)C(=O)N[C@@H](CCSC)C(=O)N[C@@H](CCCNC(=N)N)C(=O)N[C@@H](CCCNC(=N)N)C(=O)N[C@@H](CC1CCCCC1)C(=O)N[C@@H](CCC(=O)O)C(=O)N[C@@H](Cc1c[nH]c2ccccc12)C(=O)N[C@@H](CC(C)C)C(=O)N[C@@H](CCCNC(=N)N)C(=O)N[C@@H](CCCCN)C(=O)N[C@@H](CCCCN)C(=O)N[C@@H](CC(C)C)C(=O)N[C@@H](CCC(N)=O)C(=O)N[C@@H](CC(=O)O)C(=O)N[C@H](C(N)=O)C(C)C [Val^21→Cha] (H-AVSEIQLMHNLGKHLNSMRR[Cha]EWLRKKLQDV-NH2; N-terminus assumed) | – | – | – | 564 ± 172 nM | 9 | – | –
3 | CC[C@H](C)[C@H](NC(=O)[C@H](CCC(=O)O)NC(=O)[C@H](CO)NC(=O)[C@@H](NC(=O)[C@H](C)N)C(C)C)C(=O)N[C@@H](CCC(N)=O)C(=O)N[C@@H](CC(C)C)C(=O)N[C@@H](CCSC)C(=O)N[C@@H](Cc1c[nH]cn1)C(=O)N[C@@H](CC(N)=O)C(=O)N[C@@H](CC(C)C)C(=O)NCC(=O)N[C@@H](CCCCN)C(=O)N[C@@H](Cc1c[nH]cn1)C(=O)N[C@@H](CC(C)C)C(=O)N[C@@H](CC(N)=O)C(=O)N[C@@H](CO)C(=O)N[C@@H](CCSC)C(=O)N[C@@H](CCCNC(=N)N)C(=O)N[C@@H](CCCNC(=N)N)C(=O)N[C@H](C(=O)N[C@@H](CCC(=O)O)C(=O)N[C@@H](Cc1c[nH]c2ccccc12)C(=O)N[C@@H](CC(C)C)C(=O)N[C@@H](CCCNC(=N)N)C(=O)N[C@@H](CCCCN)C(=O)N[C@@H](CCCCN)C(=O)N[C@@H](CC(C)C)C(=O)N[C@@H](CCC(N)=O)C(=O)N[C@@H](CC(=O)O)C(=O)N[C@@H](CC1CCCCC1)C(N)=O)C(C)C [Val^31→Cha] (H-AVSEIQLMHNLGKHLNSMRRVEWLRKKLQD[Cha]-NH2; N-terminus assumed) | – | – | – | 466 ± 298 nM | 9 | – | –
4 | AVSEIQLMHNLGKHLNSMRRVEELRKKLQDV-NH2 [Trp^23→Glu] | – | – | – | 434 ± 84 nM | 7 | only mildly impaired binding to PTHR-delNt | less than three-fold
5 | AVSEIQLMHNLGKHLNSMRRVEWLRKKEQDV-NH2 [Leu^28→Glu] | – | – | – | 974 ± 252 nM | 5 | only mildly impaired binding to PTHR-delNt | less than three-fold
6 | SVSEIQLMHNLGKHLNAMERVEWLRKKLQDV-NH2 [Ser^17→Ala] | – | 4580 nM | 10 | – | – | – | –
7 | SVSEIQLMHNLGKHLNSAERVEWLRKKLQDV-NH2 [Met^18→Ala] | – | 8800 nM | 10 | – | – | – | –
8 | SVSEIQLMHNLGKHLNSMERVEWLRKKLQAV-NH2 [Asp^30→Ala] | – | 1540 nM | 10 | – | – | – | –
